Data from patent US20080161248A1, “Methods and Compositions for Therapeutic Treatment” (priority 2006, published 2008).
Read-outs that look alike come from different tables or passages of the source.

How the values were obtained:
[1] = cited from earlier work
[2] = kidney transplant patients, cited from earlier work
murine or human T cells = conditions: cited from earlier work
[3] = liver transplantation, U.S. study, 12-month post-transplant; cited from earlier work
[4] = cited from earlier work; remark: listed apart in the source
[5] = cited from earlier work; remark: listed apart in the source
[6] = tested on: LEW responder splenocytes with irradiated BN stimulators (lymphocyte proliferation); experiment: Mixed lymphocyte reaction (MLR) with spleen cells of treated Lewis rats; assay type: cell-based, rat; conditions: Lewis rats 1 mg/kg i.v.; spleens 4 hr after dosing; R:S ratios 0.5:1, 1:1, 5:1
Protocol: Animals: 8-9 weeks-old Lewis and Brown Norway male rats were obtained from Charles River Laboratories. […] Treatment: Lewis rats were treated with different single doses of LNS 0694i.p. 30 minutes prior to single i.v. injections of tacrolimus at a concentration of 1 mg/kg as described in the table below. Spleens were collected at 4 hr after administration of FK506 for use in the in vitro mixed lymphocyte reaction (MLR) and Con A assays. […] Mixed lymphocyte reactions: A single cell suspension of the spleen of each rat on test (LEW, responder) was prepared with a Dounce homogenizer and wash-medium. The cell suspension was depleted of red blood cells (treatment with NH4CL/Tris buffer) and washed twice with wash medium before resuspending in complete medium (CM; […] A single cell suspension of splenocytes from five Brown Norway rats (BN, stimulators) was prepared with the same method. The BN splenocytes were pooled and irradiated with 1,500-2,000 rad (cesium source) before use. Varying numbers of responder cells were mixed with a constant number of stimulators (105) in 96-well, U-bottom cell culture plates to give a final responder:stimulator (R:S) ratio of 10:1,5: 1, 1:1 and 0.5:1 in 200 μl CM. […] The results of the MLR assays [thymidine incorporation as counts per minute (CPM)] are expressed as mean ±SD.

[7] = mice, mdr1 gene depleted; cited from earlier work
[8] = cited from earlier work; remark: listed apart in the source
[9] = US heart transplantation study; cited from earlier work
[10] = tested on: mouse spleen cells, response to Con A; experiment: In vitro Con A assay on spleen cells; assay type: cell-based; conditions: high ([…]10^6 cells/well) and low (8×10^5 cells/well) cell concentration
From the text: Animals: 8-9 weeks-old Lewis and Brown Norway male rats were obtained from Charles River Laboratories. General procedures for animal care and housing was in accordance with the National Research Council (NRC) Guide for the Care and Use of Laboratory Animals (1996) and the Animal Welfare Standards incorporated in 9 CFR Part 3, 1991.
Spleens were collected for use in in vitro Con A and LPS assays.
Results: FIGS. 8 and 9 show the effect of quercetin and tacrolimus on response of mouse spleen cells to Con A at a high (1.6×10^6 cells/well) and low (8×10^5 cells/well) cell concentration, respectively.
Spleen cells were treated with Con A in the presence of vehicle, tacrolimus, quercetin or two different concentrations of tacrolimus (10^−8.2 and 10^−8.5 M) and increasing doses of quercetin at a high cell concentration (FIG. 14) or at a low cell concentration (FIG. 15). […] There was no significance difference between the effect of quercetin on tacrolimus induced cell suppression in vitro at the different concentrations used for quercetin.

C=CC[C@@H]1/C=C(\C)C[C@H](C)C[C@H](OC)C2O[C@@](O)(C(=O)C(=O)N3CCCC[C@H]3C(=O)O[C@H](/C(C)=C/[C@@H]3CC[C@@H](O)[C@H](OC)C3)[C@H](C)[C@@H](O)CC1=O)[C@H](C)C[C@@H]2OC (relative stereo) [Prograf, [3S-[3R[E(1S*,3S*,4S*)], 4S*,5R*,8S*,9E,12R*,14R*,15S*,16R*,18S*,19S*,26aR*]]-,6,8,11,12,13,14,15,16,17,18,19,24,25,26,26a-hexadecahydro-5,19-dihydroxy-3-[2-(4-hydroxy-3-methoxycyclohexyl)-1-methylethenyl]-14,16-dimethoxy-4,10,12,18-tetramethyl-8-(2-propenyl)-15,19-epoxy-3H-pyrido[2,1-c][1,4]oxaazacyclotricosine-1,7,20,21 (4H,23H)-tetrone, monohydrate]
Neurotoxicity, including tremor, headache, and other changes in motor function, mental status, and sensory function ([1]; liver transplant recipients, two randomized studies): approximately 55%
proportion of patients reporting more than one adverse event ([1]; two randomized comparative liver transplant trials): 99.8%
Adverse event: Abdominal Pain [2]: 33%
Adverse event: Anemia [2]: 30%
Adverse event: Arthralgia [2]: 25%
Adverse event: Asthenia [2]: 34%
Adverse event: Back Pain [2]: 24%
Adverse event: Chest pain [2]: 19%
Adverse event: Constipation [2]: 35%
Adverse event: Cough Increased [2]: 18%
Adverse event: Creatinine Increased [2]: 45%
Adverse event: Diabetes Mellitus [2]: 24%
Adverse event: Diarrhea [2]: 44%
Adverse event: Dizziness [2]: 19%
Adverse event: Dyspepsia [2]: 28%
Adverse event: Dyspnea [2]: 22%
Adverse event: Edema [2]: 18%
Adverse event: Fever [2]: 29%
Adverse event: Headache [2]: 44%
Adverse event: Hyperglycemia [2]: 22%
Adverse event: Hyperkalemia [2]: 31%
Adverse event: Hyperlipemia [2]: 31%
Adverse event: Hypertension [2]: 50%
Adverse event: Hypokalemia [2]: 22%
Adverse event: Hypomagnesemia [2]: 34%
Adverse event: Hypophosphatemia [2]: 49%
Adverse event: Infection [2]: 45%
Adverse event: Insomnia [2]: 32%
Adverse event: Leukopenia [2]: 15%
Adverse event: Nausea [2]: 38%
Adverse event: Pain [2]: 32%
Adverse event: Paresthesia [2]: 23%
Adverse event: Peripheral Edema [2]: 36%
Adverse event: Pruritus [2]: 15%
Adverse event: Rash [2]: 17%
Adverse event: Urinary Tract Infection [2]: 34%
Adverse event: Vomiting [2]: 29%
Adverse event: Tremor ([2]; monohydrate): 54%
concentrations inhibiting proliferation of stimulated T cells (murine or human T cells; T cells stimulated by specific antigens, antibodies to TCR/CD3 or mitogenic lectins): subnanomolar
potency relative to cyclosporin A (CsA) (murine or human T cells; higher potency than CsA, disrupting calcium signaling leading to lymphokine production): 50-100 fold
Adverse event: Abdominal Pain [3]: 59%
Adverse event: Anemia [3]: 47%
Adverse event: Anorexia [3]: 34%
Adverse event: Ascites [3]: 27%
Adverse event: Asthenia [3]: 52%
Adverse event: Atelectasis [3]: 28%
Adverse event: BUN Increased [3]: 30%
Adverse event: Back Pain [3]: 30%
Adverse event: Constipation [3]: 24%
Adverse event: Creatinine Increased [3]: 39%
Adverse event: Diarrhea [3]: 72%
Adverse event: Dyspnea [3]: 29%
Adverse event: Fever [3]: 48%
Adverse event: Headache [3]: 64%
Adverse event: Hyperglycemia [3]: 47%
Adverse event: Hyperkalemia [3]: 45%
Adverse event: Hypertension [3]: 47%
Adverse event: Hypokalemia [3]: 29%
Adverse event: Hypomagnesemia [3]: 48%
Adverse event: Insomnia [3]: 64%
Adverse event: Kidney Function Abnormal [3]: 40%
Adverse event: LFT Abnormal [3]: 36%
Adverse event: Leukocytosis [3]: 32%
Adverse event: Nausea [3]: 46%
Adverse event: Oliguria [3]: 18%
Adverse event: Pain [3]: 63%
Adverse event: Paresthesia [3]: 40%
Adverse event: Peripheral Edema [3]: 26%
Adverse event: Pleural Effusion [3]: 30%
Adverse event: Pruritus [3]: 36%
Adverse event: Rash [3]: 24%
Adverse event: Thrombocytopenia [3]: 24%
Adverse event: Tremor [3]: 56%
Adverse event: Urinary Tract Infection [3]: 16%
Adverse event: Vomiting [3]: 27%
patients with trough concentrations within the pre-defined target range ([4]; European heart study, target range 5-15 ng/mL): 74-86%
Adverse event: Tremor ([4]; heart transplant patients, European trial): 15%
aqueous solubility [5]: poor
effect on MLR (lymphocyte proliferation, thymidine incorporation) [6]: inhibited MLR
concentration in the brain [7]: markedly increased
erythrocyte and plasma protein binding [8]: extensive
Other targeted treatment-emergent adverse events (Cushingoid features, impaired wound healing, hyperkalemia, Candida infection, CMV infection/syndrome), rate [9]: less than 15%
effect on response of spleen cells to Con A (proliferation) [10]: inhibited Con A-induced proliferation in a dose dependent manner
